# Counter-ions that a name gives are not always drawn. Like-named read-outs stand apart in the source and are kept apart here.
# What was measured:
# [1] = Enzymatic hydrolytic cleavage in human plasma; type: in vitro ADME; conditions: for half-life at 1000 µM: human, plasma
# Protocol: Analytical Methods. A high pressure liquid chromatography (HPLC) method was developed for the determination of the rate constants. The chromatographic analysis was performed in a system consisting of Waters Associates Model 600-A Solvent Delivery System, Model U-6K Injector and Model 440 Dual Channel Absorbance Detector operated at 254 and 280 nm. A 30 cm×3.9 mm (internal diameter) reverse phase μBondpack C18 column (Waters Associates), operated at ambient temperature, was used for all separations. When plasma samples were analyzed, the column was protected with a 2.3 cm×3.9 mm (internal diameter) Guard Column (Waters) packed with μBondpack C18/Corasil packing material. The mobile phase used for the separation of 17 and its degradation product, 5, consisted of water, 1-hexane sulfonic acid in acetic acid (B-6 reagent, Waters), 0.1M triethanolamine and methanol (100:1:100:799). […] For the separation of compounds 10-16 and 18 and their degradation product 5, a mobile phase consisting of water, 1-hexane sulfonic acid in acetic acid (B-6 reagent, Waters), 0.1M triethanolamine and methanol (390:1:10:599) was used.
# Determination of the Hydrolytic Rate Constants in Aqueous Solutions. A 0.01M phosphate buffer and 0.01N sodium hydroxide solution were prepared from freshly distilled deionized water. This ionic strength was maintained at 0.1M with sodium chloride. The pH of the phosphate buffer was determined at 37.0° C. with a pH meter standardized at this temperature. For determination of the hydrolytic rate constants, a fresh concentrated solution of the ester in methanol was added to the hydrolytic medium previously equilibrated to the desired temperature and mixed thoroughly to result in an initial concentration of about 5×10^-4 mol. liter^-1. All reactions were run under pseudo first order conditions. Samples of 25 μL were injected into the column at various time intervals and the pseudo first order rate constants were determined from disappearance of the compound by linear regression of natural logarithm of the peak height versus time plots. The half-life and standard error of the rate constant were calculated for each run.
# Determination of the Enzymatic Hydrolytic Cleavage Rates in Human Plasma. The freshly collected plasma used was obtained from the Civitan Regional Blood Center, Inc. (Gainesville, Fla.) and contained about 80% plasma diluted with anticoagulant citrate phosphate dextrose solution, U.S.P. The plasma was stored in a refrigerator and used within one week from the date it was collected.
# A portion of 50 μL of a freshly prepared solution of the compound in methanol was added to 10 mL plasma, previously equilibrated at 37.0° C. in a water bath, and mixed thoroughly to result in an initial concentration of 1×10^-3 mol. liter^-1. One mL samples of plasma were withdrawn from the test medium, mixed immediately with 4.0 mL ice cold 95% v/v ethanol, centrifuged and the supernatant analyzed by HPLC. The first order hydrolytic rate constant was determined as before in the aqueous solutions and the results are listed in TABLE II below.
# [2] = system: heart rate response to isoproterenol (β-adrenergic); assay: Heart rate response to isoproterenol in rats (initial drug screening); type: in vivo, male Spraque-Dawley rats; conditions: 6 mg/kg i.p.
# From the text: (§1) Initial Drug Screening Protocol. Thirty-two male Spraque-Dawley rats (Blue Spruce Farms) initially weighing 300-450 gm were divided into seven different groups, each for a different drug to be tested: 12(n=4), 14(n=4), 17(n=5), 13(n=4) and 18(n=3), corresponding to the designated compounds 12, 14, 17, 13 and 18 (number of animals), respectively. The other two groups were controls (n=8, isoproterenol alone pretreated with carrier) and those treated with a known β-blocker, dl-propranolol (n=3). Ech animal was anesthetized with sodium pentobarbital (45 mg/kg) and the carotid artery was cannulated with PE-50 tubing. The cannula was subcutaneously threaded around the neck and exteriorized dorsally between the shoulder blades. Th cannula was filled with a heparin solution (300 μg/mL) and sealed with a solid 22 gauge stylet. The animals were housed in individual stainless steel cages, and two days were allowed for recovery from the surgery. Food and water were provided ad libitum. On the day of the experiment, the blood pressure and heart rate of each rat were monitored with a pressure transducer (Narco-Bio model P-1000) and the data recorded on a four-channel physiograph (Narco-Bio systems Marck IV). One hour was allowed as an equilibration period before any drugs were administered. All beta blockers were administered intraperitoneally at a dose of 6 mg/kg. Compounds 12 and 14 and dl-proranolol were dissolved in normal saline while compounds 13, 17 and 18 were dissolved in an ethanol: water solution (3:1). Depending on the trial, controls were administered the appropriate carrier. One hour after administration of the blocker, isoproterenol (Isuprel®, Wintrop Laboratories) was administered subcutaneously at a dose of 25 μg/kg. Blood pressures and heart rate also were recorded 3, 5, 10, 15, 20, 30, 45 and 60 minutes after isoproterenol administration. Both control and experimental animals were unrestrained and free moving in their home cage throughout the experiment. […] However, significant differences in the mean heart rate response amoung the 7 groups were observed: *p<0.005;**p<0.025. Comparisons between groups were made by the Newman-Keuls procedure with significance set at the 95% confidence interval. […] All data are shown as mean±standard error of the mean.
# [3] = system: blood pressure response to isoproterenol; assay: Blood pressure response to isoproterenol in rats; type: in vivo, male Spraque-Dawley rats; conditions: 6 mg/kg i.p.; 10 minutes after isoproterenol
# From the text: as §1
# Symbols are the same as those described for FIG. 1. […] Data are shown as mean±standard error of the mean.
smiles,measurement,setting,value
"CC(C)NCC(O)COc1ccc(CC(=O)OC2CC(C)(C)CC(C)(C)C2)cc1 (centres unmarked) [Compound 17, 3,3,5,5-Tetramethylcyclohexyl 4-(2-hydroxy-3-isopropylamino)propoxyphenylacetate oxalate 3/4 hydrate]",Observed first order hydrolytic rate constant k,"[1]; 37.0 ± 0.1° C., ± SEM",0.566 ± 0.027 min⁻¹
same,half-life at 1000 µM,"[1]; 37.0 ± 0.1° C., read-out: Half-life t1/2",1.22 min
same,half-life at 1000 µM,[1]; read-out: in vitro plasma half-life,~1 min
same,"mean heart rate response to isoproterenol, comparison between groups","[2]; 1 hour before isoproterenol 25 μg/kg s.c., Newman-Keuls, first 20 minutes (17) or first 30 minutes (propranolol)",significantly different from both control- and compound 18-treated groups
same,control of heart rate 60 minutes after administration,[2]; FIG. 1,effectively control the heart rate
same,mean heart rate response to isoproterenol vs groups treated with compound 12 and 18,[2]; 10 through 45 minutes following isoproterenol,significantly different than the groups treated with compound 12 and 18
same,resting heart rate prior to administration of isoproterenol,[2]; mean ± SEM,372±19 beat/minute
same,mean change in blood pressure at 10 minutes vs compound 18 group,[3],significantly different from the group treated with compound 18

# From patent publication US4829086A, “Soft β-adrenergic blocking agents” (priority 1985, dated 1989)
